This is an account of results in patent US10072001B2, “Tank-binding kinase inhibitor compounds” (Gilead Sciences, Inc., priority 2014, dated 2018).

A word on the IC50: it is the midpoint of a concentration-inhibition curve.

For one assay, the target named is IKKε (Homo sapiens (Human), UniProt Q14164). The experiment in a line: TR-FRET kinase assay, IKKε. It is filed as biochemical. The following applies: full length recombinant IKKε 0.3 nM, 2x Km ATP, 1 μM peptide, 240 min at 25° C.; geometric mean of minimum four determinations. An excerpt:
Biological Assay for TBK1 and IKKs:
In general terms: TR-FRET usually uses a lanthanide donor and a delayed reading to cut background.

A further assay deals with TBK1 (Homo sapiens (Human), UniProt Q9UHD2). The experiment in a line: TR-FRET kinase assay, TBK1. The following applies: read-out: TBK1-IC50; full length recombinant TBK1 2.5 nM, 2x Km ATP, 1 μM peptide, 240 min at 25° C.; geometric mean of minimum four determinations.

Where only a bound is given, the exact number is not on record here.

Sequence of TBK1 (Q9UHD2 whole entry): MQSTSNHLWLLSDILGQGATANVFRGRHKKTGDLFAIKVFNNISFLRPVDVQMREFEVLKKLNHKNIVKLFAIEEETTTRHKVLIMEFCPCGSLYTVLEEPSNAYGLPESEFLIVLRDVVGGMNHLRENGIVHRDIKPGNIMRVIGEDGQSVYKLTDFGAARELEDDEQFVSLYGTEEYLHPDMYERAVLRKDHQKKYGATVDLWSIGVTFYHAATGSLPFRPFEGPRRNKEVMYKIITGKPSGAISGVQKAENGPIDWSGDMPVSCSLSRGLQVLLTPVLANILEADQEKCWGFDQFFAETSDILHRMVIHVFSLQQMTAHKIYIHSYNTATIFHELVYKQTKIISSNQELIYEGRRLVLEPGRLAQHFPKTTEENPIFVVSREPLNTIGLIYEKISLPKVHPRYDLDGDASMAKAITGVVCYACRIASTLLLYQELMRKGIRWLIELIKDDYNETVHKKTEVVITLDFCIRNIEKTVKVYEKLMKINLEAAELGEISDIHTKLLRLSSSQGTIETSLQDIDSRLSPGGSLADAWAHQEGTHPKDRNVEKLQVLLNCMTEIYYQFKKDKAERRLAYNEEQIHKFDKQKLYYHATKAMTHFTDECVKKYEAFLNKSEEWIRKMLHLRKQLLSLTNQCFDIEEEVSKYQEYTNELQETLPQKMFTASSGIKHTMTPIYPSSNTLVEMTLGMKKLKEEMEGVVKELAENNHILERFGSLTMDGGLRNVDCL
Sequence of IKKε (Q14164 whole entry): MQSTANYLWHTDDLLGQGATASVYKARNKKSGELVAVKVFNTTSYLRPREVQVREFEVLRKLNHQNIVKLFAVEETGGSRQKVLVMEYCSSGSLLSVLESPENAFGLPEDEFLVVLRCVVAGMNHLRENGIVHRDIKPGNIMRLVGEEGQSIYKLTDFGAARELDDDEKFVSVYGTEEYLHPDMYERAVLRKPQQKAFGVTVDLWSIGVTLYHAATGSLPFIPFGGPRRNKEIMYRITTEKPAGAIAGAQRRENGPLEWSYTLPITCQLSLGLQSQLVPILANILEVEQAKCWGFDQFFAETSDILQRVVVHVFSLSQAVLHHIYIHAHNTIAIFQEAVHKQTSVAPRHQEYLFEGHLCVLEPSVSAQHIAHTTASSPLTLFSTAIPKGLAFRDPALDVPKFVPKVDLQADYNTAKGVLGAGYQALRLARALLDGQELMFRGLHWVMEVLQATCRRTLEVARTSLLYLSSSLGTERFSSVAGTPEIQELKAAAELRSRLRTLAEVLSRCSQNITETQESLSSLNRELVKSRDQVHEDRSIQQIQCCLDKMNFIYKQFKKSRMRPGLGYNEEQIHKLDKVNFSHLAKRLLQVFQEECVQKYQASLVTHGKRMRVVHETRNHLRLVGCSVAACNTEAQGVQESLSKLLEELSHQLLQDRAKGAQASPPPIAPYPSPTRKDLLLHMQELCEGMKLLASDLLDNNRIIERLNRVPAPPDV

For the compound `N#Cc1cc(-c2ncnc3[nH]c(-c4ccc(CN5CCOCC5)cc4)nc23)ccc1OC1CCOCC1` [Example 252, 5-(8-(4-(morpholinomethyl)phenyl)-9H-purin-6-yl)-2-((tetrahydro-2H-pyran-4-yl)oxy)benzonitrile], the results for the IC50 at IKKε and at TBK1 were 4.85 nM and 3.34 nM, respectively.
The corresponding values for `Cn1cc(-c2nc3c(-c4ccc(OC5CCOCC5)c(C#N)c4)ncnc3[nH]2)cn1` [Example 213, 5-(8-(1-methyl-1H-pyrazol-4-yl)-9H-purin-6-yl)-2-((tetrahydro-2H-pyran-4-yl)oxy)benzonitrile] are 30.2 nM and 12.4 nM.
The corresponding values for `CC(=O)Nc1ccc(-c2cc3c(-c4ccc(OC5CCOCC5)c(C#N)c4)ccnc3[nH]2)cn1` [Example 236, N-(5-(4-(3-cyano-4-((tetrahydro-2H-pyran-4-yl)oxy)phenyl)-1H-pyrrolo[2,3-b]pyridin-2-yl)pyridin-2-yl)acetamide] are 7.91 nM and 15.8 nM.
Taken in the same sequence, the figures for `CN1CCN(c2ccc(-c3nc4c(-c5ccc(OC6CCN(C(=O)C(F)F)CC6)c(C#N)c5)ncnc4[nH]3)cc2)CC1` [Example 268, 2-((1-(2,2-difluoroacetyl)piperidin-4-yl)oxy)-5-(8-(4-(4-methylpiperazin-1-yl)phenyl)-9H-purin-6-yl)benzonitrile] were 2.25 nM and 3.92 nM.
Regarding `N#Cc1cc(-c2cnnc3[nH]c(-c4ccc(N5CCOCC5)cc4)nc23)ccc1OC1CCOCC1` [Example 401, 5-(8-(4-morpholinophenyl)-9H-imidazo[4,5-c]pyridazin-6-yl)-2-((tetrahydro-2H-pyran-4-yl)oxy)benzonitrile], the IC50 on IKKε and on TBK1 was greater than 1000 nM each time.
Regarding `COc1ccc(-c2cc3c(-c4ccc(OC5CCN(C(=O)CO)CC5)c(C#N)c4)ncnc3[nH]2)cc1` [Example 126, 2-((1-(2-hydroxyacetyl)piperidin-4-yl)oxy)-5-(6-(4-methoxyphenyl)-7H-pyrrolo[2,3-d]pyrimidin-4-yl)benzonitrile], the IC50 on IKKε is 3.29 nM; at TBK1 it was 1.34 nM.
For the compound `Cn1cc(-c2cc3c(-c4ccc(OC5CCOCC5)c(C#N)c4)ccnc3[nH]2)cn1` [Example 84, 5-(2-(1-methyl-1H-pyrazol-4-yl)-1H-pyrrolo[2,3-b]pyridin-4-yl)-2-((tetrahydro-2H-pyran-4-yl)oxy)benzonitrile], the IC50 on IKKε came to 4.71 nM; on TBK1, 3.68 nM.
The corresponding values for `N#Cc1cc(-c2ncnc3[nH]c(-c4ccc(N5CCOCC5)cc4)cc23)ccc1OC1CCS(=O)(=O)CC1` [Example 240, 2-((1,1-dioxidotetrahydro-2H-thiopyran-4-yl)oxy)-5-(6-(4-morpholinophenyl)-7H-pyrrolo[2,3-d]pyrimidin-4-yl)benzonitrile] are 33.8 nM and 3.82 nM.
Taken in the same sequence, the figures for `N#Cc1nc(-c2ccnc3[nH]c(-c4ccc(N5CCOCC5)cc4)cc23)ccc1OC1CCOCC1` [Example 86, 6-(2-(4-morpholinophenyl)-1H-pyrrolo[2,3-b]pyridin-4-yl)-3-((tetrahydro-2H-pyran-4-yl)oxy)picolinonitrile] were 13.8 nM and 3.89 nM.
The corresponding values for `N#Cc1cc(-c2ncnc3[nH]c(-c4cnc5c(c4)NCCO5)cc23)ccc1OC1CCOCC1` [Example 189, 5-(6-(2,3-dihydro-1H-pyrido[2,3-b][1,4]oxazin-7-yl)-7H-pyrrolo[2,3-d]pyrimidin-4-yl)-2-((tetrahydro-2H-pyran-4-yl)oxy)benzonitrile] are 7.99 nM and 4.36 nM.
For the compound `CC(C)(C)OC(=O)N1CC[C@@H](Oc2ccc(-c3ncnc4[nH]c(-c5ccc(N6CCOCC6)cc5)nc34)cc2C#N)C1` [Example 206, (R)-tert-butyl 3-(2-cyano-4-(8-(4-morpholinophenyl)-9H-purin-6-yl)phenoxy)pyrrolidine-1-carboxylate], the IC50 at IKKε and on TBK1 was greater than 1000 nM throughout.
In the case of `CC(=O)N1CC(Oc2ccc(-c3ccnc4[nH]c(-c5ccc(N6CCOCC6)cc5)cc34)cc2C#N)C1` [Example 153, 2-((1-acetylazetidin-3-yl)oxy)-5-(2-(4-morpholinophenyl)-1H-pyrrolo[2,3-b]pyridin-4-yl)benzonitrile], the values for the IC50 at IKKε and at TBK1 were 195 nM and 51.1 nM, respectively.
Taken in the same sequence, the figures for `CS(=O)(=O)N1CCN(c2ccc(-c3cc4c(-c5ccc(OC6CCOCC6)c(C#N)c5)ncnc4[nH]3)cc2)CC1` [Example 215, 5-(6-(4-(4-(methylsulfonyl)piperazin-1-yl)phenyl)-7H-pyrrolo[2,3-d]pyrimidin-4-yl)-2-((tetrahydro-2H-pyran-4-yl)oxy)benzonitrile] were 3.15 nM and 1.42 nM.
As to `CN1CCN(c2ccc(-c3nc4c(-c5ccc(OC6CCN(C(=O)CO)CC6)c(C#N)c5)ncnc4[nH]3)cc2)CC1` [Example 251, 2-((1-(2-hydroxyacetyl)piperidin-4-yl)oxy)-5-(8-(4-(4-methylpiperazin-1-yl)phenyl)-9H-purin-6-yl)benzonitrile], the IC50 at IKKε came out at 0.815 nM; at TBK1, 0.883 nM.
`C[C@H](O)C(=O)N1CC[C@@H](Oc2ccc(-c3ncnc4[nH]c(-c5ccc(N6CCOCC6)cc5)nc34)cc2C#N)C1` [Example 210, 2-(((R)-1-((S)-2-hydroxypropanoyl)pyrrolidin-3-yl)oxy)-5-(8-(4-morpholinophenyl)-9H-purin-6-yl)benzonitrile]: the IC50 at IKKε is greater than 875 nM; on TBK1, 38.9 nM.
The corresponding values for `N#Cc1cc(-c2ncnc3[nH]c(-c4ccc(C(=O)N5CCCC5)cc4)cc23)ccc1OC1CCOCC1` [Example 185, 5-(6-(4-(pyrrolidine-1-carbonyl)phenyl)-7H-pyrrolo[2,3-d]pyrimidin-4-yl)-2-((tetrahydro-2H-pyran-4-yl)oxy)benzonitrile] are 5.39 nM and 1.33 nM.
The corresponding values for `N#Cc1cc(-c2ncnc3[nH]c(-c4ccc(N5CCOCC5)cc4)nc23)ccc1O[C@@H]1CCN(C(=O)CO)C1` [Example 208, (R)-2-((1-(2-hydroxyacetyl)pyrrolidin-3-yl)oxy)-5-(8-(4-morpholinophenyl)-9H-purin-6-yl)benzonitrile] are 7.58 nM and 1.68 nM.
The corresponding values for `Cn1cc(-c2cc3c(-c4ccc(OC5CCOCC5)c(C#N)c4)ncnc3[nH]2)cn1` [Example 104, 5-(6-(1-methyl-1H-pyrazol-4-yl)-7H-pyrrolo[2,3-d]pyrimidin-4-yl)-2-((tetrahydro-2H-pyran-4-yl)oxy)benzonitrile] are 8.18 nM and 3.81 nM.
For the compound `CC(C)(C)OC(=O)N1CCC(Oc2ccc(-c3ncnc4[nH]c(-c5ccc(N6CCOCC6)c(F)c5)nc34)cc2C#N)CC1` [Example 245, tert-butyl 4-(2-cyano-4-(8-(3-fluoro-4-morpholinophenyl)-9H-purin-6-yl)phenoxy)piperidine-1-carboxylate], the IC50 on IKKε and at TBK1 was 1000 nM in each case.
`N#Cc1cc(-c2ncnc3[nH]c(-c4ccc(N5CCOCC5)cc4)nc23)ccc1OC1CCN(S(N)(=O)=O)CC1` [Example 262, 4-(2-cyano-4-(8-(4-morpholinophenyl)-9H-purin-6-yl)phenoxy)piperidine-1-sulfonamide]: the IC50 on IKKε came out at 4.22 nM; at TBK1, 2.08 nM.
